Experimental data published in ChEMBL document CHEMBL4706528, “The design, synthesis and anti-tumor mechanism study of new androgen receptor degrader” (Eur J Med Chem, 2020).

Assays:
LNCaP C4-2B = experiment: Antiproliferative activity against androgen-sensitive positive human LNCaP C4-2B cells assessed as cell growth inhibition measured after 72 hrs by SRB assay; assay type: functional, cell-based
[1] = target: T1, Androgen receptor (Homo sapiens) (UniProt P10275); experiment: Binding affinity to androgen receptor LBD (unknown origin) at 10 uM incubated for 4 hrs under dark by fluorescence polarization based binding assay relative to R1881
T1 sequence (whole entry): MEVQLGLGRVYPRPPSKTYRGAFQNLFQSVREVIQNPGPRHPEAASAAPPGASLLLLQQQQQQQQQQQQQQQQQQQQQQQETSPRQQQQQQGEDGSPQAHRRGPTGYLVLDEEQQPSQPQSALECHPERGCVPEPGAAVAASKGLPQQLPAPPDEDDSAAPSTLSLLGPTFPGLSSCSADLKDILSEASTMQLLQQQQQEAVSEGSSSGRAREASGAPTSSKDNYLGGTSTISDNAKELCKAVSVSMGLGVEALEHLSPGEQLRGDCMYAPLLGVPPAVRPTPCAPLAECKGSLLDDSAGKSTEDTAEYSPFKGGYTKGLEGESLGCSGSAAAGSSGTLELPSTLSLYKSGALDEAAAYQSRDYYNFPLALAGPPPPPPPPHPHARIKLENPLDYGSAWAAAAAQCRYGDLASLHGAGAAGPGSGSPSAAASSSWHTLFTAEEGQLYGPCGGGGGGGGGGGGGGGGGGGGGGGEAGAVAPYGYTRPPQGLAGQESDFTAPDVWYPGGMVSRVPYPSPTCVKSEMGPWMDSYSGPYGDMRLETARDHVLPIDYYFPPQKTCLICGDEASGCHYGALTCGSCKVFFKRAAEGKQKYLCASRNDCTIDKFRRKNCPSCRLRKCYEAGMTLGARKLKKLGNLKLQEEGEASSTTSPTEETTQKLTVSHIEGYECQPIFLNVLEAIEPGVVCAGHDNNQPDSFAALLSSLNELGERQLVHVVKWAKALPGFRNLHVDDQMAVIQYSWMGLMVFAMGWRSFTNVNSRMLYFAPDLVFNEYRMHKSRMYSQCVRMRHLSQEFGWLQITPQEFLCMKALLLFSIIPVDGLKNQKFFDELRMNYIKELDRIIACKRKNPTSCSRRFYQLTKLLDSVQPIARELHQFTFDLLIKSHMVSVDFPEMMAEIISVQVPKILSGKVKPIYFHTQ

LNCaP = experiment: Antiproliferative activity against androgen-positive human LNCaP cells assessed as cell growth inhibition measured after 72 hrs by SRB assay; assay type: functional, cell-based
[2] = Cytotoxicity against androgen-negative human WPMY-1 cells assessed as cell growth inhibition measured after 72 hrs by SRB assay; assay type: cell-based; conditions: WPMY-1, 72 h
GES1 = experiment: Cytotoxicity against androgen-negative human GES1 cells assessed as cell growth inhibition measured after 72 hrs by SRB assay; assay type: cell-based; conditions: GES1, 72 h
SGC-7901 = experiment: Antiproliferative activity against androgen-positive human SGC-7901 cells assessed as cell growth inhibition measured after 72 hrs by SRB assay; assay type: functional, cell-based; conditions: SGC-7901, 72 h
MCF7 = experiment: Antiproliferative activity against androgen-positive human MCF7 cells assessed as cell growth inhibition measured after 72 hrs by SRB assay; assay type: functional, cell-based; conditions: MCF7, 72 h
PC-3 = experiment: Antiproliferative activity against androgen-negative human PC-3 cells assessed as cell growth inhibition measured after 72 hrs by SRB assay; assay type: functional, cell-based; conditions: PC-3, 72 h

| Compound | IC50 (LNCaP C4-2B) [µM] | Activity [1] [%] | IC50 (LNCaP) [µM] | IC50 [2] [µM] | IC50 (GES1) [µM] | IC50 (SGC-7901) [µM] | IC50 (MCF7) [µM] | IC50 (PC-3) [µM] |
| --- | --- | --- | --- | --- | --- | --- | --- | --- |
| CC1(C)C(=O)N(c2ccc(C#N)c(C(F)(F)F)c2)C(=S)N1CCCn1cc(COCCOCCOC(=O)CC23CC4CC(CC(C4)C2)C3)nn1 | 6.03 | 74.6 | 4.06 | > 80 | > 80 | 4.11 | 9.12 | > 80 |
| CC1(C)C(=O)N(c2ccc(C#N)c(C(F)(F)F)c2)C(=S)N1CCCCn1cc(COCCOCCOC(=O)CC23CC4CC(CC(C4)C2)C3)nn1 | 12.3 | 87.8 | 1.86 | > 80 | > 80 | 7.79 | 13.3 | > 80 |
| CC1(C)C(=O)N(c2ccc(C#N)c(C(F)(F)F)c2)C(=S)N1CCCn1cc(COCCOCCOCCOC(=O)CC23CC4CC(CC(C4)C2)C3)nn1 | 5.8 | 79.5 | 3.97 | > 80 | > 80 | 4.98 | 7.73 | > 80 |
